System: T cell lines primed in vitro to Der p I
Test: secondary proliferation of Der p I-primed T cell lines (Examples V, VII, XI)
Format: cell-based, human
Conditions: for T cell reactivity: overlapping Der p I peptides
How it was run: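 PBMC were primed with native or recombinant Der p I (10 or 20 μg/ml) for 7 days, then expanded with IL-2 and IL-4. Resting T cells (2×10^4) were cultured 3 days with irradiated autologous EBV-B cells or PBMC and titrated protein or peptides, then pulsed 16 h with 1 μCi ³H-thymidine. S.I. was peak-response CPM over medium-only CPM, with S.I. ≥2.0 scored positive.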

DP I-3: Der p I peptide (TVTPIRMQGGCGSCWAFSGVAATESAYLA)
T cell reactivity (33 positive experiments): significant regions of T cell reactivity

DP I-21.2: Der p I peptide; unique peptide (SINGNAPAEIDLRQMRTVTPIRMQ)
T cell response to selected Der p I peptides (33 positive experiments, FIG. 13): respond significantly
positivity index (P.I.) (mean S.I. × percent responders, 33 patients): at least 150

DP I-1: Der p I peptide, amino acid residues 1-20 (TNACSINGNAPAEIDLRQMR)
percent of positive responses (S.I. of at least 2) (33 patients): 73%
T cell reactivity (33 positive experiments): significant regions of T cell reactivity

DF I-22.2: VAATESAYLAYRNTSLDLSEQELVD, amino acid residues 40-64 of Der f I
T cell response to selected Der f I peptides (Der p I primed, 30 positive experiments, FIG. 15a): respond significantly

From patent US5968526A, “T cell epitopes of the major allergens from Dermatophagoides (house dust mite)” (Immulogic Pharamaceutical Corporation, priority 1995, dated 1999)
